Results: patent publication US20230416457A1, “DUAL MODALITY UPS […] TUMOR ACIDOSIS IMAGING” (The Board of Regents of The University of Texas System, priority 2018, published 2023)

Assays:
[1] = test system: orthotopic HN5 head and neck tumors; details: mouse, in vivo
Method: Female NOD-SCID mice (6-8 weeks) were purchased from UT Southwestern Medical Center Breeding Core. For orthotopic head and neck tumors, HN5 and FaDu (2×10^6 per mouse) were injected into the submental triangle area. One week after inoculation, animals with tumor size 20-100 mm^3 were used for imaging studies. Orthotopic murine 4T1 breast tumor model was established in BalB/C mice by injection of 4T1 (5×10^5 per mouse) cells into the mammary fat pads. GFP-transfected 73C murine glioblastoma tumor model was established by implanting 73C glioma cells intracranially in the left hemisphere of mice. Gliomas (2-4 mm in diameter) were formed within two weeks in mice.
For FDG experiments, mice were fasted for 12 h prior to PET imaging. Each mouse received 150 μCi of FDG in 150 μL of saline intravenously via tail vein injection. PET/CT images were acquired one hour post-injection for 15 mins. The mice were sedated on the imaging bed under 2% isoflurane for the duration of imaging. Immediately after the CT data acquisition that was performed at 80 kV and 500 μA with a focal spot of 58 μm, 15-min static PET scans were conducted. […] Reconstructed CT and PET images were fused and analyzed using Inveon Research Workplace (IRW) software. […] The target activity was quantitatively calculated as percentage injected dose per gram of tissue (% ID/g).

[2] = test system: LPS-induced tissue inflammation; design: species or system C57BL/6 immunocompetent mice; details: mouse, in vivo
[3] = test system: macrophages; details: cited from earlier work

Question: For ^18F-fluorodeoxyglucose [FDG], which “contrast over noise ratio (CNR), FDG-PET” value [1] is on record?
Answer: The value was 1.7±0.6.

Question: And the “anticipated PET signal in inflamed tissues” value [2]?
Answer: The value was “strong signals”.

Question: And the “increase of FDG uptake in macrophages by LPS stimulation” value [3]?
Answer: The value was 2.5 fold.
